From US20250122202A1, “EGFR INHIBITOR, PREPARATION METHOD THEREFOR AND USE THEREOF” (SHANDONG NEW TIME PHARMACEUTICAL CO., LTD., priority 2021, published 2025)

Tested on: KC-0178:NCI-1975 EGFR-L858R/T790M/C797S
Assay: Cell proliferation inhibition experiment (CCK-8), KC-0178
Format: cell-based
Conditions: Homo sapiens, 72 h
Source text: (§1) Inhibition rate %=[(A0−AS)/(A0−AC)]×100%.

Structure (SMILES) | IC50 [µM]
COc1cc(N2CCN(C)CC2)ccc1Nc1nc(N[C@H]2CC[C@@H](CO)CC2)c2c(C(=O)c3ccc(F)cc3)c[nH]c2n1 [Example 106] | 1 to 2
CN(C)CCOc1ccc(Nc2nc(N[C@H]3CC[C@@H](CO)CC3)c3c(C(=O)c4ccc(F)cc4)c[nH]c3n2)cc1 [Example 107] | 1 to 2
C=CC(=O)Nc1cc(Nc2nccc(-c3cn(C)c4ccccc34)n2)c(OC)cc1N(C)CCN(C)C [Osimertinib, reference compound] | 1 to 2

Tested on: KC-1474:PC-9 EGFR-Del19/T790M/C797S
Assay: Cell proliferation inhibition experiment (CCK-8), KC-1474
Format: cell-based
Conditions: Homo sapiens, 72 h
Source text: as §1

Structure (SMILES) | IC50 [µM]
COc1cc(N2CCN(C)CC2)ccc1Nc1nc(N[C@H]2CC[C@@H](CO)CC2)c2c(C(=O)c3ccc(F)cc3)c[nH]c2n1 [Example 106] | 0.1 to 1
CN(C)CCOc1ccc(Nc2nc(N[C@H]3CC[C@@H](CO)CC3)c3c(C(=O)c4ccc(F)cc4)c[nH]c3n2)cc1 [Example 107] | 0.1 to 1
C=CC(=O)Nc1cc(Nc2nccc(-c3cn(C)c4ccccc34)n2)c(OC)cc1N(C)CCN(C)C [Osimertinib, reference compound] | 1 to 2

Tested on: PC-9 EGFR-Del19
Assay: Cell proliferation inhibition experiment (CCK-8), PC-9
Format: cell-based
Conditions: Homo sapiens, 72 h
Source text: as §1

Structure (SMILES) | IC50 [µM]
CN(C)CCOc1ccc(Nc2nc(N[C@H]3CC[C@@H](CO)CC3)c3c(C(=O)c4ccc(F)cc4)c[nH]c3n2)cc1 [Example 107] | < 0.1

Tested on: H1975 EGFR-L858R/T790M
Assay: Cell proliferation inhibition experiment (CCK-8), H1975
Format: cell-based
Conditions: Homo sapiens, NCI-H1975, 72 h
Source text: as §1

Structure (SMILES) | IC50 [µM]
CN(C)CCOc1ccc(Nc2nc(N[C@H]3CC[C@@H](CO)CC3)c3c(C(=O)c4ccc(F)cc4)c[nH]c3n2)cc1 [Example 107] | 0.1 to 1

Target: EGFR-Del19/T790M/C797S kinase (Homo sapiens, UniProt P00533, C797S/T790M, form not given)
Assay: In-vitro enzyme experiment 2 (HTRF kinase assay), EGFR Del19 T790M C797S
Format: biochemical
Conditions: read-out: enzyme inhibition IC50 (nM) EGFR-Del19/T790M/C797S
Procedure: The specific experiment was as follows: • 1. […] Test method of activity of compound • a) a compound diluent was transferred to each well of an assay plate (784075, Greiner) using Echo 550; • b) the assay plate was sealed and centrifuged at 1,000 g for 1 min; • c) 2×EGFR (D770-N771 ins NPG T790M) was prepared in a 1× kinase buffer; • d) 5 μl of the 2×EGFR (D770-N771 ins NPG T790M) was added to a 384-well assay plate (784075, Greiner); • e) the assay plate was centrifuged at 1,000 g for 30 s and incubated at room temperature for 10 min; • f) 2× TK-substrate-biotin (2 μM) and ATP were added to the 1× kinase buffer and mixed; • g) the reaction was started after adding 5 μl of the TK-substrate-biotin (2 μM) and ATP mixture; • h) the assay plate was centrifuged at 1,000 g for 30 s; and the assay plate was sealed and incubated at room temperature for 40 min; • i) 4× Sa-XL 665 was prepared in an HTRF detection buffer; • j) 5 μl of the Sa-XL 665 and 5 μl of a TK-antibody-cryptate were added to each well of the assay plate; • k) the assay plate was centrifuged at 1,000 g for 30 s and incubated at room temperature for 1 h; and • l) fluorescence signals at 615 nm (cryptate) and 665 nm (XL665) were read on an Envision 2104 reader. • 3. Data analysis • 3.1 Calculation of ratio (665/615 nm) of each well • 3.2 Calculation of inhibition rate
[formula] • 3.3 Calculation of IC50 value of compound and drawing dose-effect curve of compound • IC50 values were calculated using GraphPad 6.0 by applying a non-linear regression curve (dose-effect relationship-variable slope) of the logarithm of the compound concentration versus the inhibition rate.
The preparation of the kinase buffer, the test method of the activity of the compound, and the data analysis referred to the relevant definitions in example 117, wherein step c) of the test method of the activity of the compound was replaced by preparing 2×EGFR Del19 T790M C797S in the 1× kinase buffer.

Sequence of EGFR-Del19/T790M/C797S kinase (P00533 25-1210 T790M/C797S limits assumed, form open): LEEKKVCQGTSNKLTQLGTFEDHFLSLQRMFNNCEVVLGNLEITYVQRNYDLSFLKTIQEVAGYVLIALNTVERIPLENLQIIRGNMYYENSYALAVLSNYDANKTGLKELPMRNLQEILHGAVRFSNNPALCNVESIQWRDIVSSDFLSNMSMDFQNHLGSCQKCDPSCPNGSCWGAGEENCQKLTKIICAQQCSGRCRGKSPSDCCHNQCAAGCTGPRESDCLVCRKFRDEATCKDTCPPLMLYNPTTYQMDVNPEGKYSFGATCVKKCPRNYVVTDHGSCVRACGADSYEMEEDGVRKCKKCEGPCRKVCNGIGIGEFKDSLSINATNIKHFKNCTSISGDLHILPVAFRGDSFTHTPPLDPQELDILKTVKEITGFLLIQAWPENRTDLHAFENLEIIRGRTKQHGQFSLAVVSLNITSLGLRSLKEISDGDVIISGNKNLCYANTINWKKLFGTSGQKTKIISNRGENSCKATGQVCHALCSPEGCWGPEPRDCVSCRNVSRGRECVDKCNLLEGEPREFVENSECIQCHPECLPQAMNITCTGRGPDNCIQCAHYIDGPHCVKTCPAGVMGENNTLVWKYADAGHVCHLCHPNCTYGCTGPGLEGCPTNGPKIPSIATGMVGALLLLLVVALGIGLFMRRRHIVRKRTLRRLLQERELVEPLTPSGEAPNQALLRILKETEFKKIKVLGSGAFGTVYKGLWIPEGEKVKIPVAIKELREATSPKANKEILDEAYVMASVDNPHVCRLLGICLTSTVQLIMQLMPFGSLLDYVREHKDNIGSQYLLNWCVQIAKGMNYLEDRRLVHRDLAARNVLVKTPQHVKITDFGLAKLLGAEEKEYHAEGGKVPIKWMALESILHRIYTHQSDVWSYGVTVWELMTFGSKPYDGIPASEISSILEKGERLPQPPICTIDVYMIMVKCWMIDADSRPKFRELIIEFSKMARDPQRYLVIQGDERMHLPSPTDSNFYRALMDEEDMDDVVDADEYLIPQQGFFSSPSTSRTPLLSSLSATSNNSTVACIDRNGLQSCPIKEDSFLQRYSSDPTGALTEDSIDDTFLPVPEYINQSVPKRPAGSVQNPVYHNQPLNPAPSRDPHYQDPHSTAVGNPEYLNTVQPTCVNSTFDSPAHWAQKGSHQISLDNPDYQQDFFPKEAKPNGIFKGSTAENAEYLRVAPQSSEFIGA

Structure (SMILES) | IC50 [nM]
CN1CCN(c2ccc(Nc3nc(NC4(CO)CC4)c4c(C(=O)c5ccc(F)cc5)c[nH]c4n3)cc2)CC1 [Example 10] | 10 to 100
CN1CCN(c2ccc(Nc3nc(NC4(CO)CCCC4)c4c(C(=O)c5ccc(F)cc5)c[nH]c4n3)cc2)CC1 [Example 11] | 100 to 600
CN1CCN(c2ccc(Nc3nc(NC4CCCCC4)c4c(C(=O)c5ccc(F)cc5)c[nH]c4n3)cc2)CC1 [Example 41] | 100 to 600
CN1CCN(c2ccc(Nc3nc(N[C@@H]4CCN(S(C)(=O)=O)C4)c4c(C(=O)c5ccc(F)cc5)c[nH]c4n3)cc2)CC1 [Example 49] | 100 to 600
CN1CCN(c2ccc(Nc3nc(N[C@@H]4CCCN(S(C)(=O)=O)C4)c4c(C(=O)c5ccc(F)cc5)c[nH]c4n3)cc2)CC1 [Example 50] | 100 to 600
CN1CCN(c2ccc(Nc3nc(N[C@H]4CCCOC4)c4c(C(=O)c5ccc(F)cc5)c[nH]c4n3)cc2)CC1 [Example 57] | 100 to 600
CN1CCN(c2ccc(Nc3nc(N[C@@H]4CCCOC4)c4c(C(=O)c5ccc(F)cc5)c[nH]c4n3)cc2)CC1 [Example 58] | 100 to 600
COc1cc(N2CCN(C)CC2)ccc1Nc1nc(N[C@H]2CC[C@@H](CO)CC2)c2c(C(=O)c3ccc(F)cc3)c[nH]c2n1 [Example 106] | 10 to 100
CN(C)CCOc1ccc(Nc2nc(N[C@H]3CC[C@@H](CO)CC3)c3c(C(=O)c4ccc(F)cc4)c[nH]c3n2)cc1 [Example 107] | 10 to 100

Tested on: A549 EGFR-WT
Assay: Cell proliferation inhibition experiment (CCK-8), A549
Conditions: Homo sapiens, A549, 72 h, read-out: cell proliferation inhibition IC50 (μM) A549

Structure (SMILES) | IC50 [µM]
C=CC(=O)Nc1cc(Nc2nccc(-c3cn(C)c4ccccc34)n2)c(OC)cc1N(C)CCN(C)C [Osimertinib, reference compound] | 3.01
